{"source": "patent US20120142730A1", "about": "(priority 2010, published 2012)", "test_system": "subjects with relapsing remitting multiple sclerosis (RRMS)", "assay": "ALLEGRO phase III trial: safety and tolerability", "assay_type": "in vivo, human", "description": "Eligible subjects were equally randomized 1:1 into one of the following treatment arms: • 1. […] 21, 2007 (see, page 10, line 5 to page 11, line 3). • 2. Matching placebo for laquinimod arm: one capsule is administered once daily.\nThe following assessments were performed at specified time points: • 1. Vital signs were measured at each study visit. • 2. A physical examination is performed at months −1 (screening), (baseline) 1, 3, 6, 12, 18 and 24 (termination/early discontinuation core study). In case of the 6 months extended study, additional examination was performed at month 30 (termination/early discontinuation of extended study). • 3. The following safety clinical laboratory tests were performed: • a. Complete blood count (CBC) with differential—at all scheduled visits. A reticulocyte count was added to the CBC at months 0 (baseline) and 24/30 (termination/early discontinuation). • b. Serum chemistry (including electrolytes, liver enzymes, direct and total bilirubin and pancreatic amylase and CPK), and urinalysis—at all scheduled visits. • c. A rapid urine β-hCG test was performed in women of child-bearing potential at baseline (month 0) and at each scheduled study visit thereafter (at site). • d. β-hCG in women of child-bearing potential was performed at all scheduled visits. • e. Starting after visit Month 3 a rapid urine β-hCG test was performed in women of child-bearing potential every 28 (±2) days. […] Adverse Events (AEs) are monitored throughout the study. • 9. Concomitant medications are monitored throughout the study. • 10. […] MS functional Composite (MSFC) was assessed at months −1 (screening) (three practices for training purposes only), at month 0 (baseline), 6, 12, 18 and 24 (termination/early discontinuation). […] Subject-reported fatigue was assessed by the Modified Fatigue Impact Scale (MFIS) at months 0, 6, 12, 18, and 24 (termination/early discontinuation). […] The general health status was assessed by the EuroQoL (EQ5D) questionnaire at month 0 (baseline) and month 24 (termination/early discontinuation of the study). […]", "data": [{"smiles": "CCN(C(=O)c1c(O)c2c(Cl)cccc2n(C)c1=O)c1ccccc1", "note": "[Laquinimod, laquinimod]", "values": [{"measurement": "Deaths", "setting": "0.6 mg daily oral, 24 months", "value": "No deaths"}, {"measurement": "Time of occurrence of ALT elevations up to 5×ULN", "setting": "human, in vivo", "value": "≤ 6", "unit": "months"}, {"measurement": "Reversibility of ALT elevations up to 5×ULN", "setting": "in vivo", "value": "all were reversible"}]}]}
